The text below walks through data of US10093630B2, “Pyrazole compounds and methods of making and using same” (ABIDE THERAPEUTICS, INC., priority 2014, dated 2018).

Common to all, as to test: In vitro competitive activity-based protein profiling (gel-based, FP-Rh or HT-01 probe)
Holding throughout (type): biochemical

Assay [1] has as its target T1, PLA2G7 (Mus musculus, UniProt Q60963).
T1 construct: Proteomes (mouse brain membrane fraction or cell lysates); from tissue; host or cells: mouse brain membrane fraction (or cell lysates, not specified)
T1 sequence (Q60963 22-440): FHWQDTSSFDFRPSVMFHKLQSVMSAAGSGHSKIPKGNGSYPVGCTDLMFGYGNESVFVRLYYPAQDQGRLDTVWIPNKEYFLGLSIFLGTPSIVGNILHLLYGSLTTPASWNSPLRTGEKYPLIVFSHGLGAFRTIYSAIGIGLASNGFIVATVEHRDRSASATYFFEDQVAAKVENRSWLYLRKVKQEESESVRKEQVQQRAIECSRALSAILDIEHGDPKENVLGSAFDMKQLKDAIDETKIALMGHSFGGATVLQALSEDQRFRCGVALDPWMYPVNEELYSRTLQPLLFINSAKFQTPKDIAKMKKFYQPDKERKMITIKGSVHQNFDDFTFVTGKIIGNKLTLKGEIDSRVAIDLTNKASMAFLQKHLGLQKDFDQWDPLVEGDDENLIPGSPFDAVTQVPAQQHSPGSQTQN
As to conditions: for inhibition at 1 µM: 1 μM inhibitor, read-out: % Inhibition at 1 μM, D = PLA2G7; for inhibition at 1 µM / inhibition at 10 µM: gel-based competitive ABPP; for inhibition at 10 µM: 10 μM inhibitor, read-out: % Inhibition at 10 μM, D = PLA2G7; for IC50: mouse brain membrane fraction or cell lysates, 30 min preincubation at 37° C. The essentials:
(§1)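 Gel-based read-out: fluorescent band intensity after SDS-PAGE reflected remaining hydrolase activity. Inhibitors were preincubated 30 min at 37° C with 1.0 mg/mL mouse brain membrane or lysate proteome before a further 30 min at 37° C with FP-Rh or HT-01 probe.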

Assay [2] addresses T2, FAAH (Mus musculus, UniProt O08914).
T2 construct: Proteomes (mouse brain membrane fraction or cell lysates); from tissue; host or cells: mouse brain membrane fraction (or cell lysates, not specified)
T2 sequence (O08914 1-579): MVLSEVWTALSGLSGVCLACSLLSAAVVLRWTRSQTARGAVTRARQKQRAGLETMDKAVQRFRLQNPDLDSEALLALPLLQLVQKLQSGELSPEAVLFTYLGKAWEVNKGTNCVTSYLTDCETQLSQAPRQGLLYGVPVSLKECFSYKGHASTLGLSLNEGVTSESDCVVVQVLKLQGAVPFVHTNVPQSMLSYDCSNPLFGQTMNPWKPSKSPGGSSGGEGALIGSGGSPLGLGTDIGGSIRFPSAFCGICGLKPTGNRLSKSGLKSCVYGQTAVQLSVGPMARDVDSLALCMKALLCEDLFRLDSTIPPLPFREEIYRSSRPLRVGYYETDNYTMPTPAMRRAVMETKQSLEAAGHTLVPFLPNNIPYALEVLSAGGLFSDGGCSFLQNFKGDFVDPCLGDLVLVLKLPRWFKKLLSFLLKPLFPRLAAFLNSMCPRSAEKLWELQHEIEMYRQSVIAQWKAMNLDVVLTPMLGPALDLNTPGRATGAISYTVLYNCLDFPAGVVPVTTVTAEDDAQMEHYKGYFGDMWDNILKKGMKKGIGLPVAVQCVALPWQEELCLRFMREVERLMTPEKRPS
To be noted: for inhibition at 1 µM: 1 μM inhibitor, read-out: % Inhibition at 1 μM, B = FAAH; for inhibition at 1 µM / inhibition at 10 µM: gel-based competitive ABPP; for inhibition at 10 µM: 10 μM inhibitor, read-out: % Inhibition at 10 μM, B = FAAH; for IC50: mouse brain membrane fraction or cell lysates, 30 min preincubation at 37° C., read-out: Mouse (IC50 value, nM) FAAH. The method, boiled down: as §1

The target in assay [3] is T3, ABHD6 (Mus musculus, UniProt Q8R2Y0).
T3 construct: Proteomes (mouse brain membrane fraction or cell lysates); from tissue; host or cells: mouse brain membrane fraction (or cell lysates, not specified)
T3 sequence (Q8R2Y0 1-336): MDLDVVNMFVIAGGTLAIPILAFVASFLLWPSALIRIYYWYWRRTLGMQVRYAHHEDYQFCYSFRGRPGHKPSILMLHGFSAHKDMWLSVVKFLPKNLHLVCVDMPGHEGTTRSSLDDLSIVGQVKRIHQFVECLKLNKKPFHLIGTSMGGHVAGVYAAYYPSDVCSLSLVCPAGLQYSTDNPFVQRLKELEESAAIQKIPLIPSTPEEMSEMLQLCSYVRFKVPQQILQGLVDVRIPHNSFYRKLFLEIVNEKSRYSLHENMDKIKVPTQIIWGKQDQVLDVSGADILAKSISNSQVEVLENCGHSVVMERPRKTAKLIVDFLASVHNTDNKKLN
As to conditions: for inhibition at 1 µM: 1 μM inhibitor, read-out: % Inhibition at 1 μM, C = ABHD6; for inhibition at 1 µM / inhibition at 10 µM: gel-based competitive ABPP; for inhibition at 10 µM: 10 μM inhibitor, read-out: % Inhibition at 10 μM, C = ABHD6; for IC50: mouse brain membrane fraction or cell lysates, 30 min preincubation at 37° C., read-out: Mouse (IC50 value, nM) ABHD6. The essentials:
as §1

The target in assay [4] is T4, MAGL (Mus musculus, UniProt O35678).
T4 construct: Proteomes (mouse brain membrane fraction or cell lysates); from tissue; host or cells: mouse brain membrane fraction (or cell lysates, not specified)
T4 sequence (O35678 1-303): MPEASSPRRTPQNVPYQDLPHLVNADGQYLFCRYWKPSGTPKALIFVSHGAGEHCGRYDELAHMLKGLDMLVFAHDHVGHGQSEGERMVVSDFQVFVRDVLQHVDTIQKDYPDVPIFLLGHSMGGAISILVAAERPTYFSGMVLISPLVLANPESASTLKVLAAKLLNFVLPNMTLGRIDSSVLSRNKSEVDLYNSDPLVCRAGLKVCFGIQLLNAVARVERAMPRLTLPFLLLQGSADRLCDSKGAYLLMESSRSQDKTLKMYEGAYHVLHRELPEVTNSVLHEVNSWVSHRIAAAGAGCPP
To be noted: for inhibition at 1 µM: 1 μM inhibitor; for inhibition at 1 µM / inhibition at 10 µM: gel-based competitive ABPP; for inhibition at 10 µM: 10 μM inhibitor; for IC50: mouse brain membrane fraction or cell lysates, 30 min preincubation at 37° C., read-out: Mouse (IC50 value, nM) MAGL. The method, boiled down:
as §1

Some results are limits rather than exact numbers.

For `CCN(Cc1cccc(OC)c1)C(=O)n1cc(C(F)(F)F)cn1` [Example 250, N-Ethyl-N-(3-methoxybenzyl)-4-(trifluoromethyl)-1H-pyrazole-1-carboxamide], the inhibition (usually the share of the control response that was lost under treatment) at 1 µM in assay [1] was under 25%; in assay [2] it was over 75%; in assay [3], 25 to 75%; in assay [4] it was over 75%. Further, the inhibition at 10 µM in assay [1], in assay [2], in assay [3] and in assay [4] was over 75% throughout. The IC50 (in general, the concentration that gives 50% inhibition) in assay [2] was under 100 nM; in assay [3], over 1000 nM; in assay [4], over 1000 nM.
`CCN(Cc1cccc(OC)c1)C(=O)n1cc(C)cn1` [Example 251, N-Ethyl-N-(3-methoxybenzyl)-4-methyl-1H-pyrazole-1-carboxamide]: the inhibition at 1 µM in assay [1], in assay [2], in assay [3] and in assay [4] was under 25% in each case.
With `CCN(Cc1ccc(Cl)cc1)C(=O)n1cc(C#N)cn1` [Example 252, N-(4-Chlorobenzyl)-4-cyano-N-ethyl-1H-pyrazole-1-carboxamide], the inhibition at 1 µM in assay [1] was under 25%; in assay [2] it was over 75%; in assay [3], under 25%; in assay [4], over 75%. Also, the inhibition at 10 µM was 25 to 75% in assay [1], over 75% in assay [2], over 75% in assay [3] and over 75% in assay [4]. Moreover, the IC50 was under 100 nM in assay [2], over 1000 nM in assay [3] and 100 to 1000 nM in assay [4].
As for `CCN(Cc1ccc(Cl)cc1)C(=O)n1cc(C(F)(F)F)cn1` [Example 253, N-(4-Chlorobenzyl)-N-ethyl-4-(trifluoromethyl)-1H-pyrazole-1-carboxamide], the inhibition at 1 µM in assay [1] was under 25%; in assay [2], over 75%; in assay [3], under 25%; in assay [4], 25 to 75%. Further, the IC50 in assay [1] is over 1000 nM; in assay [2], under 100 nM; in assay [3], over 1000 nM; in assay [4], over 1000 nM.
`CCN(Cc1ccc(Cl)cc1)C(=O)n1cc(C)cn1` [Example 254, N-(4-Chlorobenzyl)-N-ethyl-4-methyl-1H-pyrazole-1-carboxamide]: the inhibition at 1 µM in assay [1], in assay [2], in assay [3] and in assay [4] was under 25% each time.
For the compound `CCN(Cc1ccc(C)cc1)C(=O)n1cc(C#N)cn1` [Example 255, 4-Cyano-N-ethyl-N-(4-methylbenzyl)-1H-pyrazole-1-carboxamide], the inhibition at 1 µM was under 25% in assay [1], over 75% in assay [2], under 25% in assay [3] and over 75% in assay [4]. For the same compound, the IC50 was over 1000 nM in assay [1], under 100 nM in assay [2], over 1000 nM in assay [3] and 100 to 1000 nM in assay [4].
On to `CCN(Cc1ccc(C)cc1)C(=O)n1cc(C(F)(F)F)cn1` [Example 256, N-Ethyl-N-(4-methylbenzyl)-4-(trifluoromethyl)-1H-pyrazole-1-carboxamide], for which the inhibition at 1 µM in assay [1] was under 25%; in assay [2], over 75%; in assay [3], under 25%; in assay [4] it was 25 to 75%. Also, the half-maximal inhibitory concentration (IC50) is over 1000 nM in assay [1], under 100 nM in assay [2], over 1000 nM in assay [3] and over 1000 nM in assay [4].
With `CCN(Cc1ccc(C)cc1)C(=O)n1cc(C)cn1` [Example 257, N-Ethyl-4-methyl-N-(4-methylbenzyl)-1H-pyrazole-1-carboxamide], the inhibition at 1 µM in assay [1], in assay [2], in assay [3] and in assay [4] was under 25% in each case.
For the compound `CCN(Cc1ccc(OC)cc1)C(=O)n1cc(C#N)cn1` [Example 258, 4-Cyano-N-ethyl-N-(4-methoxybenzyl)-1H-pyrazole-1-carboxamide], the inhibition at 1 µM is under 25% in assay [1], over 75% in assay [2], under 25% in assay [3] and over 75% in assay [4]. In addition, the IC50 in assay [1] was over 1000 nM; in assay [2], under 100 nM; in assay [3] it was over 1000 nM; in assay [4], 100 to 1000 nM.
Regarding `CCN(Cc1ccc(OC)cc1)C(=O)n1cc(C(F)(F)F)cn1` [Example 259, N-Ethyl-N-(4-methoxybenzyl)-4-(trifluoromethyl)-1H-pyrazole-1-carboxamide], the inhibition at 1 µM in assay [1] was under 25%; in assay [2] it was over 75%; in assay [3], under 25%; in assay [4], over 75%. Moreover, the IC50 in assay [1] was over 1000 nM; in assay [2] it was under 100 nM; in assay [3] it was over 1000 nM; in assay [4], over 1000 nM.
On to `CCN(Cc1ccc(OC)cc1)C(=O)n1cc(C)cn1` [Example 260, N-Ethyl-N-(4-methoxybenzyl)-4-methyl-1H-pyrazole-1-carboxamide], for which the inhibition at 1 µM in assay [1], in assay [2], in assay [3] and in assay [4] was under 25% each time.
`CCN(Cc1cccc(N2CCOCC2)c1)C(=O)n1cc(C(F)(F)F)cn1` [Example 261, N-Ethyl-N-(3-morpholinobenzyl)-4-(trifluoromethyl)-1H-pyrazole-1-carboxamide]: the inhibition at 1 µM is under 25% in assay [1], over 75% in assay [2], 25 to 75% in assay [3] and 25 to 75% in assay [4]. Besides, the IC50 in assay [1] was over 1000 nM; in assay [2], under 100 nM; in assay [3] it was over 1000 nM; in assay [4], 100 to 1000 nM.
Take `CCN(Cc1cccc(N2CCOCC2)c1)C(=O)n1cc(C)cn1` [Example 262, N-Ethyl-4-methyl-N-(3-morpholinobenzyl)-1H-pyrazole-1-carboxamide]: the inhibition at 1 µM in assay [1], in assay [2], in assay [3] and in assay [4] was under 25% each time.
